# Measurements as given in patent US5585381A, “Pyrimidine derivatives and pharmaceutical composition” (Kureha Chemical Industry Co., Ltd., priority 1994, dated 1996).
# Like-named read-outs stand apart in the source and are kept apart here.
# Assays:
# [1] = test system: kidney disease model rats; settings: cited from earlier work
# [2] = target: T1, angiotensin II receptor subtype 1 (AT1) (Oryctolagus cuniculus, UniProt P34976); experiment: Binding to angiotensin II receptor subtype 1 (AT1); design: species or system rabbits (adrenal glands); settings: 100 μM; 3H-angiotensin II tracer
# T1 construct: from adrenal glands in rabbits; from tissue; host or cells: rabbit adrenal glands
# T1 sequence (P34976 1-359): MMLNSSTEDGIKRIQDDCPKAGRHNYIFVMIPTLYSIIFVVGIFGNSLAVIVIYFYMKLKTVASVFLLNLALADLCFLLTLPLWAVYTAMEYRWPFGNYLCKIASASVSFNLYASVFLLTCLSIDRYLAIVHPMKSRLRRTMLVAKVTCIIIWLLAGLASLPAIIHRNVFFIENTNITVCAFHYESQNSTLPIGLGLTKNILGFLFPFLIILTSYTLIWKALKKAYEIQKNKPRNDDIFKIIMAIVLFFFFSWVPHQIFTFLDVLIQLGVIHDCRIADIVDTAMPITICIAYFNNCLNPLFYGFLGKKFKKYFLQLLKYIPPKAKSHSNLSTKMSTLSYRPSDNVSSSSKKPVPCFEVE
# Description: (§1) In this Example, the affinity to the angiotensin II receptor subtype 1 or subtype 2 was evaluated by a binding assay in accordance with the method described in Biochem. Pharmacol., 33, 4057-4062 (1984).
# (§2) Specifically, the measurement of the total binding in the presence of each drug was performed as follows:
# (§3) A mixture (final volume=0.25 ml) of a drug in a given concentration (the drug was dissolved in DMSO, and diluted to a double volume with a buffer attached to a drug discovery system to prepare sample for the assay; 0,025 ml), a tracer (0.025 ml), and receptors (0.2 ml) was incubated [in the case of the angiotensin II receptor subtype 1 (AT1), at room temperature for 3 hours, and in the case of the subtype 2 (AT2), at 37° C. for 1 hour]. Then, the reaction mixture was filtered with suction (GF/C filter was used in AT1, and GF/B filter was used in AT2). The filter papers after filtration with suction (the tracer bound to the receptors) were counted by a γ-well counter (ARC-500, Aloka). The non-specific bindings were measured by repeating the above method, except that a large excess amount of a displacer was added. The specific binding of the drug in the given concentration was calculated by subtracting the non-specific binding from the total binding, respectively.
# (§4) In AT1 and AT2, the percentages to inhibit the bindings of radioactive ligands (tracer) to receptors by the drugs to be tested (IC50 value of concentration to show 50% inhibition, or binding inhibition % in 100 μM) were measured, using the drugs to be tested and control drugs in the given concentration.
# [3] = Acute toxicity, single oral dose in mice; type: in vivo, ICR female mice; settings: 500 mg/kg single oral dose, 6 days, 5 per group
# Description: Five-week-old ICR female mice (5 mice per group) were bred for acclimation for a week. Then, the compounds of the present invention were dissolved or dispersed in an aqueous solution of 0.5% methylcellulose, and orally administered to the mice in a single dosage (500 mg/kg).
# [4] = test system: kidney disease model rats; experiment: Action to survival time of kidney diseased animals; type: in vivo, Sprague-Dawley female rats; settings: 20 mg/kg/day per os; observation eight weeks (upper limit); control 5.0
# Description: (§5) The compounds of the present invention and the reference substance were forcedly administered per os to kidney disease model rats, and the action to depress blood pressure was observed. The kidney disease model rats were prepared by ligature of branches of renal artery in accordance with the conventional method, that is, the left hilum renalis of Sprague-Dawley female rats was exposed under anesthesia, and one of four secondary branches of renal artery was left unligated, while the remaining three branches were ligated, respectively. After a week, the hilum renalis (artery, vein, and ureter) of the right kidney were further ligated to thereby prepare the rats whose renal function was lowered to approximately 1/8 of the normal function. Each group consisted of eight rats. The drugs to be tested (20 mg/kg) were administered to each administering group, and only water was administered to control group. After two days from the administration, the systolic blood pressure was measured by the tail cuff method using a blood pressure measuring apparatus (UR5000; Ueda).
# The kidney disease model rats were prepared as in Example 21. Fifteen groups (8 rats per group) were prepared in a manner so that there was no major difference between the groups in the serum creatinine value and the urea nitrogen value indicating renal function. The rats in each group were allowed to freely take up feed and water. […] To the rats in the control group, only water was forcedly administered per os every day. If kidney diseases are aggravated, the rat will die of uremia. Thus, the survival time was observed as comprehensive indication of the improvement effect on the kidney diseases. The observation period was eight weeks. Thus if all rats survived, the average survival time is eight weeks and it is an upper limit.
# [5] = test system: kidney disease model rats; experiment: Renal function indicatory value (action to kidney diseases); type: in vivo, Sprague-Dawley female rats; settings: 20 mg/kg/day per os, two weeks
# Description: The kidney disease model rats were prepared by ligature of branches of renal artery in accordance with the conventional method, that is, the left hilum renalis of Sprague-Dawley female rats was exposed under anesthesia, and one of four secondary branches of renal artery was left unligated, while the remaining three branches were ligated, respectively. […] Each group consisted of eight rats. The drugs to be tested (20 mg/kg) were administered to each administering group, and only water was administered to control group. After two days from the administration, the systolic blood pressure was measured by the tail cuff method using a blood pressure measuring apparatus (UR5000; Ueda).
# The kidney disease model rats were prepared as in Example 21. Fifteen groups (8 rats per group) were sleeked in a manner so that there were no major differences between each group in the serum creatinine value and the urea nitrogen value indicating renal function. The rats in each group were allowed to freely take up feed and water. […] To the rats in the control group, only water was forcedly administered per os every day. After two weeks, 0.2 ml of blood was collected from the carotid artery of the rat under anesthesia, and centrifuged to obtain serum. Using 25 μl of the serum, serum creatinine (Scr) was measured by a creatinine analytical instrument (Beckman). Using 10 μl of the serum, urea nitrogen (BUN) was measured by a BUN analytical instrument (Beckman). Creatinine clearance was evaluated as follows:
# After serum creatinine measurement, rats were placed in urinary metabolic cages for 24 hours to collect urine. Urinary creatine concentration (Ucr) was measured by a creatinine analytical instrument, and total volume of urination (Uvol) was also measured. Creatinine clearance (CCr) was calculated by the following formula: [formula]
# [6] = target: T2, angiotensin II receptor subtype 2 (AT2) (Bos taurus, UniProt G5E6F7); experiment: Binding to angiotensin II receptor subtype 2 (AT2); design: species or system bovine (cerebellar cortex); settings: 125I-Tyr4-angiotensin II tracer, 37° C., 1 hour
# T2 construct: from cerebellar cortex in bovine; from tissue; host or cells: bovine cerebellar cortex
# T2 sequence (G5E6F7 1-362): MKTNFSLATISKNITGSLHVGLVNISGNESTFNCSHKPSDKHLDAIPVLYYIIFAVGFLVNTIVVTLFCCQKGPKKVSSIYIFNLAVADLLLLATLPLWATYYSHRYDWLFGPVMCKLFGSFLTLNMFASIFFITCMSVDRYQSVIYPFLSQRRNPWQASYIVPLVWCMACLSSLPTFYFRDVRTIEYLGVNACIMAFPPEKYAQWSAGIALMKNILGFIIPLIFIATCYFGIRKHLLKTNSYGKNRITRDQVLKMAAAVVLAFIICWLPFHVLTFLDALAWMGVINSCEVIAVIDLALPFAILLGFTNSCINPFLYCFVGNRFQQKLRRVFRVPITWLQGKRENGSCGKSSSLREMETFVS
# Description: as §1, §2, §3, §4
# from cerebellar cortex in bovine
# tracer: ^125 I-Tyr^4 -angiotensin II
# [7] = test system: kidney disease model rats; experiment: Action to depress blood pressure in kidney disease model rats (tail cuff); type: in vivo, Sprague-Dawley female rats; settings: 20 mg/kg per os
# Description: as §5
# hyperlipemia model rats = settings: cited from earlier work
# [8] = test system: renal dysfunction model rats; settings: cited from earlier work
smiles,measurement,setting,value
"CCCN(Cc1ccc(-c2ccccc2-c2nnn[nH]2)cc1)c1ncccc1C(=O)O [A-81988, 2-[N-propyl-N-[[2'-(1H-tetrazol-5-yl)biphenyl-4-yl]methyl]amino]pyridine-3-carboxylic acid]",blood pressure,[1],the reduction of blood pressure was observed
same,proteinuria,[1],proteinuria was improved
"CCCCC(=O)Nc1c(Cl)ncnc1NCc1ccc(C(=O)OC)cc1 [Compound No. 1, methyl 4-[[(6-chloro-5-valeramido)pyrimidin-4-yl]aminomethyl]benzoate]",inhibition at 100 µM,[2],11%
same,Number of deaths/number of survivals,[3],0/5
same,Average survival time,[4],6.9 weeks
same,Creatinine clearance (CCr),[5]; control 0.20,0.29 mL/min
same,"Creatinine (serum, Scr)",[5]; control 2.0,1.7 mg/dL
same,Urea nitrogen (BUN),[5]; control 100,84 mg/dL
same,inhibition at 100 µM,[6],0%
same,Blood pressure (average systolic),"[7]; after two days, control 210 mmHg",210 mmHg
"CCCCc1nc(Cl)c(CO)n1Cc1ccc(-c2ccccc2-c2nnn[nH]2)cc1 [DuP753, 2-butyl-4-chloro-5-(hydroxymethyl)-1-[[2'-(1H-tetrazol-5-yl)biphenyl-4-yl]methyl]imidazole]",blood pressure,hyperlipemia model rats; large dose more effective against the kidney disease,an evident reduction of blood pressure was observed
same,blood pressure,hyperlipemia model rats; lower dose,without practical effect to blood pressure
same,effect on kidney disease,hyperlipemia model rats; lower dose,the kidney disease was improved
same,blood pressure,[8],the reduction of blood pressure accompanied
same,effect on proteinuria and glomerulosclerosis,[8],effective against proteinuria and glomerulosclerosis
same,action to depress blood pressure (in words),[7]; comparison with control group,clearly showed the action to depress the blood pressure
